Data on two compounds can be found in BindingDB's records for doi:10.7270/Q2QR4VJR (Nmmlsc, 2010).

This assay has as its target T1, Regulator of G-protein signaling 16 (Homo sapiens, UniProt O15492).
T1 sequence (O15492 whole entry): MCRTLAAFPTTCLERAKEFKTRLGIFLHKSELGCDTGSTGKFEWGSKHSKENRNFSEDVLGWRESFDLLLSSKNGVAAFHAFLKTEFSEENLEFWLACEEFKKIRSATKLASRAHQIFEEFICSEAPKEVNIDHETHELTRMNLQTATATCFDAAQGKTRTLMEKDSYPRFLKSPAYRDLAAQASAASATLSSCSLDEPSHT
The experiment in a line: RGS16-Galphao binding modulators, SAR follow-up, biochemical, multiplexed bead flow cytometry, SAR compounds (AID 2298). In general terms: Flow cytometry measures light scatter and fluorescence of single cells or particles in a stream.

A word on the Ki: it is a measure of affinity in units of concentration, obtained from inhibition or displacement. High values mean weaker binding, low ones tighter binding. The compound `O=C1C(Cl)=C(N2CCCCC2)C(=O)C(Cl)=C1c1cnc(N2CCCCC2)s1` [MLS000550549] returned a Ki of 100 nM.

Compound `NS(=O)(=O)c1ccc(N=NCc2ccc(O)c(O)c2O)c([N+](=O)[O-])c1` [4-[[(E)-(2,3-dihydroxy-4-oxo-1-cyclohexa-2,5-dienylidene)methyl]hydrazo]-3-nitrobenzenesulfonamide] yielded a Ki of 20 nM.
